These results are taken from patent US7816522B2, “Triazolone derivatives” (Eisai Co., Ltd., priority 2006, dated 2010).

This assay addresses T1, human clotting factor VIIa (Homo sapiens, UniProt P08709).
T1 construct: a human clotting factor VIIa (hereinafter, “Factor VIIa”) purified sample; purchased Enzyme Research Laboratories HFVIIa
Description: Inhibitory activity against clotting factor VIIa (chromogenic substrate Spectrozyme FVIIa, TF/Factor VIIa enzyme solution). In kind it is biochemical. The conditions noted are these: human Factor VIIa 5 nmol/L with human TF 10 nmol/L, room temperature 40 minutes, 405 nm. The gist of the method:
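Human Factor VIIa (5 nmol/L) with human TF (10 nmol/L) in Tris-BSA buffer pH 7.4 containing 15 mmol/L CaCl2 and cephalin, with Spectrozyme FVIIa substrate. Reaction 40 min at room temperature; 4-nitroanilide read at 405 nm. IC50 by non-linear regression over 100 μmol/L–0.1 nmol/L.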

Counter-ions that a name gives are not always drawn.

T1 sequence (P08709 213-466 limits assumed): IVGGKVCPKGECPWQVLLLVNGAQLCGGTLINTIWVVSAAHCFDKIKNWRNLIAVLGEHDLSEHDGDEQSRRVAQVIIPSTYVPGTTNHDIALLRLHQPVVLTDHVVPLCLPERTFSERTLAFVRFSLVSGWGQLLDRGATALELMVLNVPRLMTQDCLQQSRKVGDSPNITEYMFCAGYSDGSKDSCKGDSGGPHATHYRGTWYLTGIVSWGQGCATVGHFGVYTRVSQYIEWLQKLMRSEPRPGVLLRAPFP
T1 sequence (P08709 61-212 limits assumed): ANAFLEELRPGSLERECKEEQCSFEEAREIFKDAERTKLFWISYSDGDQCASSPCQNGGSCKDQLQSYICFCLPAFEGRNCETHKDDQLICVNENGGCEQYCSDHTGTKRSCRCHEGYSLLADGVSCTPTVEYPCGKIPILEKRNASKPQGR
T1 sequence (P13726 33-295 partner): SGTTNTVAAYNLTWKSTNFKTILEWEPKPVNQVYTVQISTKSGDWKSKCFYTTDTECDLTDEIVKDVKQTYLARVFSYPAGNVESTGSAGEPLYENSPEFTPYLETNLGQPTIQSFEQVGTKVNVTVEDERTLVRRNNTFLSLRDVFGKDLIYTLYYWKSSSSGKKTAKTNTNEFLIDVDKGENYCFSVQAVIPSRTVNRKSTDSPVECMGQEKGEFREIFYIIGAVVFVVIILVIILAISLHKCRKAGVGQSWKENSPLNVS

In the case of `COc1cc(C(Nc2ccc(C(=N)N)cc2)c2nn(-c3ccsc3C(=O)O)c(=O)[nH]2)c(F)cc1OCCO` (racemic) [Example 237, 3-(3-{(4-Carbamimidoylphenylamino)-[2-fluoro-4-(2-hydroxyethoxy)-5-methoxyphenyl]methyl}-5-oxo-4,5-dihydro-[1,2,4]triazol-1-yl)thiophene-2-carboxylic acid], the IC50 is 23.5 nM.

Compound `COc1cc(OC)c(F)c(C(Nc2ccc(C(=N)N)cc2)c2nn(-c3cccc[n+]3[O-])c(=O)[nH]2)c1` (single isomer, unassigned) [Example 2] showed an IC50 of 9.4 nM.

As for `COc1cc(C(Nc2ccc(C(=N)N)cc2)c2nn(-c3ncsc3C(=O)O)c(=O)[nH]2)cc2c1OCCCO2` (single isomer, unassigned) [Example 180, 4-{3-[(4-carbamimidoylphenylamino)-(9-methoxy-3,4-dihydro-2H-benzo[b][1,4]dioxepin-7-yl)methyl]-5-oxo-4,5-dihydro-[1,2,4]triazol-1-yl}thiazole-5-carboxylic acid], the IC50 is 10.1 nM.

`CCOc1cc(C(Nc2ccc(C(=N)N)cc2)c2nn(-c3ncsc3C(=O)O)c(=O)[nH]2)cnc1OC` (single isomer, unassigned) [Example 185, 4-{3-[(4-Carbamimidoylphenylamino)-(5-ethoxy-6-methoxypyridin-3-yl)methyl]-5-oxo-4,5-dihydro-[1,2,4]triazol-1-yl}thiazole-5-carboxylic acid]: it took 11.6 nM to reach half-maximal inhibition (IC50).

Turning to `COc1cc(F)c(C(Nc2ccc(C(=N)N)cc2)c2nn(-c3nc[nH]c3C(=O)O)c(=O)[nH]2)cc1OC` (single isomer, unassigned) [Example 187, 5-{3-[(4-Carbamimidoylphenylamino)-(2-fluoro-4,5-dimethoxyphenyl)methyl]-5-oxo-4,5-dihydro-[1,2,4]triazol-1-yl}-3H-imidazole-4-carboxylic acid], the concentration for half-maximal inhibition (IC50) came out at 9 nM.

Compound `COc1cc(C(Nc2ccc(C(=N)N)cc2)c2nn(-c3ncsc3C(=O)O)c(=O)[nH]2)c(F)c2c1OCCO2` (single isomer, unassigned) [Example 188, 4-{3-[(4-Carbamimidoylphenylamino)-(5-fluoro-8-methoxy-2,3-dihydro-benzo[1,4]dioxin-6-yl)-methyl]-5-oxo-4,5-dihydro-[1,2,4]triazol-1-yl}thiazole-5-carboxylic acid] displayed an IC50 of 22.4 nM.

`COc1cc(C(Nc2ccc(C(=N)N)cc2)c2nn(-c3nc[nH]c3C(=O)O)c(=O)[nH]2)c(F)c2c1OCCO2` (single isomer, unassigned) [Example 191, 5-{3-[(R) or (S)-(4-Carbamimidoylphenylamino)-(5-fluoro-8-methoxy-2,3-dihydrobenzo[1,4]dioxin-6-yl)methyl]-5-oxo-4,5-dihydro-[1,2,4]triazol-1-yl}-3H-imidazole-4-carboxylic acid trifluoroacetate] had an IC50 of 9.3 nM.

Regarding `COc1cc(OCCCO)c(F)c(C(Nc2ccc(C(=N)N)cc2)c2nn(-c3[nH]ncc3C(=O)O)c(=O)[nH]2)c1` (single isomer, unassigned) [Example 198, (R) or (S)-5-(3-{(4-Carbamimidoylphenylamino)-[2-fluoro-3-(3-hydroxypropoxy)-5-methoxyphenyl]methyl}-5-oxo-4,5-dihydro-[1,2,4]triazol-1-yl)-1H-pyrazole-4-carboxylic acid acetate], inhibition was half-maximal at 19.6 nM (IC50).

For `COc1cc(COCCO)c(F)c(C(Nc2ccc(C(=N)N)cc2)c2nn(-c3ncccn3)c(=O)[nH]2)c1` (single isomer, unassigned) [Example 216, 4-{[[2-Fluoro-3-(2-hydroxyethoxymethyl)-5-methoxyphenyl]-(5-oxo-1-pyrimidin-2-yl-4,5-dihydro-1H-[1,2,4]triazol-3-yl)methyl]amino}benzamidine], it took 13.4 nM to reach half-maximal inhibition (IC50).

In turn, `COc1cc(CF)cc(C(Nc2ccc(C(=N)N)cc2)c2nn(-c3ncccn3)c(=O)[nH]2)c1` (stereo not shown) [Example 11, 4-{[(3-fluoromethyl-5-methoxyphenyl)-(5-oxo-1-pyrimidin-2-yl-4,5-dihydro-1H-[1,2,4]triazol-3-yl)methyl]amino}benzamidine acetate] gave an IC50 of 29.7 nM.

In turn, `COc1ccccc1-n1nc(C(Nc2ccc(C(=N)N)cc2)c2cc(C)cc(OC)c2F)[nH]c1=O` (stereo not shown) [Example 14, 4-({(2-fluoro-3-methoxy-5-methylphenyl)-[1-(2-methoxyphenyl)-5-oxo-4,5-dihydro-1H-[1,2,4]triazol-3-yl]methyl}amino)benzamidine trifluoroacetate] had a half-inhibitory concentration (IC50) of 5.9 nM.

As to `COc1cc(C(Nc2ccc(C(=N)N)cc2)c2nn(-c3ncccn3)c(=O)[nH]2)cc(CO)c1OC` (stereo not shown) [Example 23, 4-{[(5-hydroxymethyl-3,4-dimethoxyphenyl)-(5-oxo-1-pyrimidin-2-yl-4,5-dihydro-1H-[1,2,4]triazol-3-yl)methyl]amino}benzamidine acetate], the midpoint of inhibition, the IC50, lay at 23.9 nM.

The compound `COc1cc(C(Nc2ccc(C(=N)N)cc2)c2nn(-c3ncccn3)c(=O)[nH]2)cc(C(C)O)c1OC` (stereo not shown) [Example 25, 4-({[3-(1-hydroxyethyl)-4,5-dimethoxyphenyl]-(5-oxo-1-pyrimidin-2-yl-4,5-dihydro-1H-[1,2,4]triazol-3-yl)methyl}amino)benzamidine acetate] showed an IC50 of 15.1 nM.

Turning to `COc1cc(OCCF)c(F)c(C(Nc2ccc(C(=N)N)cc2)c2nn(-c3cccc(N)n3)c(=O)[nH]2)c1` (stereo not shown) [Example 51, 4-({[1-(6-aminopyridin-2-yl)-5-oxo-4,5-dihydro-1H-[1,2,4]triazol-3-yl]-[2-fluoro-3-(2-fluoroethoxy)-5-methoxyphenyl]methyl}amino)benzamidine trifluoroacetate], it took 5.1 nM to reach half-maximal inhibition (IC50).

In turn, `COc1cc(C(Nc2ccc(C(=N)N)cc2)c2nn(-c3ncccc3N)c(=O)[nH]2)cc2c1OCOC2` (stereo not shown) [Example 57, 4-({[1-(3-aminopyridin-2-yl)-5-oxo-4,5-dihydro-1H-[1,2,4]triazol-3-yl]-(8-methoxy-4H-benzo[1,3]dioxin-6-yl)methyl}amino)benzamidine acetate] yielded an IC50 of 8.9 nM.

`CCc1cc(OCC#N)cc(C(Nc2ccc(C(=N)N)cc2)c2nn(-c3ncccn3)c(=O)[nH]2)c1` (stereo not shown) [Example 77, 4-{[(3-cyanomethoxy-5-ethylphenyl)-(5-oxo-1-pyrimidin-2-yl-4,5-dihydro-1H-[1,2,4]triazol-3-yl)methyl]amino}benzamidine acetate] displayed an IC50 of 8.8 nM.

Regarding `CCOc1cc(COC)cc(C(Nc2ccc(C(=N)N)cc2)c2nn(-c3ncccn3)c(=O)[nH]2)c1` (stereo not shown) [Example 83, 4-{[(3-ethoxy-5-methoxymethylphenyl)-(5-oxo-1-pyrimidin-2-yl-4,5-dihydro-1H-[1,2,4]triazol-3-yl)methyl]amino}benzamidine acetate], the IC50 was found to be 24.8 nM.

With `CCOc1cc(CF)cc(C(Nc2ccc(C(=N)N)cc2)c2nn(-c3ncccn3)c(=O)[nH]2)c1` (stereo not shown) [Example 84, 4-{[(3-ethoxy-5-fluoromethylphenyl)-(5-oxo-1-pyrimidin-2-yl-4,5-dihydro-1H-[1,2,4]triazol-3-yl)methyl]amino}benzamidine acetate], the half-maximal inhibitory concentration (IC50) was found to be 16.9 nM.

On to `COc1cc(C(Nc2ccc(C(=N)N)cc2)c2nn(-c3ncccn3)c(=O)[nH]2)cc(OC)c1OC` (stereo not shown) [Example 86, 4-{[(5-oxo-1-pyrimidin-2-yl-4,5-dihydro-1H-[1,2,4]triazol-3-yl)-(3,4,5-trimethoxyphenyl)methyl]amino}benzamidine acetate], for which the IC50 turned out to be 51.7 nM.

The term IC50 denotes the concentration that inhibits the measured activity by half. Low values mean greater potency, high ones weaker potency.
